One may read the Ki as a measure of affinity in units of concentration, obtained from inhibition or displacement.

The structures appear in SMILES notation.

Assay [1] concerns the target T1, recombinant human muscarinic receptor m2 (Homo sapiens, UniProt P08172).
T1 construct: expressed in transfected cells; host or cells: Chinese hamster ovary (CHO) cells, membrane preparation
T1 sequence (P08172 1-466): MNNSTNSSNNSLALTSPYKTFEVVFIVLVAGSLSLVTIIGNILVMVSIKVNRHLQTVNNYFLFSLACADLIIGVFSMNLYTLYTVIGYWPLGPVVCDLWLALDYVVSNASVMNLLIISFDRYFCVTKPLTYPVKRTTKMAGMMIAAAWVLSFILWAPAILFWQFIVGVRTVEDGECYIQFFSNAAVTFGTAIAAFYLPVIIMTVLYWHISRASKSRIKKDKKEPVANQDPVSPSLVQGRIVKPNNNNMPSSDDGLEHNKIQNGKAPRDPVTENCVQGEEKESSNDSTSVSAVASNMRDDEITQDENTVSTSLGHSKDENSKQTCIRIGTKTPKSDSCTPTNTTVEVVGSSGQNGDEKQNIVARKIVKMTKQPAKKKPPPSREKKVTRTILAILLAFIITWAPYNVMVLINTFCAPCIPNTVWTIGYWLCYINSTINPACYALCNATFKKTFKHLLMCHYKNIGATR
Briefly: Radioligand binding studies, [3H]N-methyl scopolamine, m2. The conditions noted are these: CHO cell membranes, [3H]N-methyl scopolamine 0.4 nM; pIC50 converted to pKi by Cheng-Prusoff. How it is done: (§1) The compounds of this invention are muscarinic receptor antagonists. The muscarinic receptor affinity of test compounds can be determined by an in vitro receptor binding assay which utilizes a cell membrane preparation from the Chinese hamster ovary cells expressing the recombinant human muscarinic receptors (M1-M5), and is described in more detail in Example 12.
(§2) The inhibitory activity of compounds of this invention in vitro was determined using a modification of the method described in Hegde, S. S. et al. 1997 Br. J. Pharmacol., 120, 1409-1418.
(§3) Cell membranes from Chinese hamster ovary cells expressing the recombinant human muscarinic receptors (m1-m5) were employed. The assays were conducted with the radioligand [^3H]N-methyl scopolamine (0.4 nM, specific activity 84 Ci·mmol^−1) in a final volume of 0.25 mL Tris-Krebs buffer. Non-specific binding was defined with 1 μM atropine. Assays were performed using scintillation proximity assay technology. Competition-displacement curves were generated using 10 concentrations of test compounds and were analyzed by iterative curve fitting to a four parameter logistic equation. pIC50 values (-log of the IC50) were converted to pKi values using the Cheng-Prusoff equation.

In assay [2] the target is T2, recombinant human muscarinic receptor m3 (Homo sapiens, UniProt P20309).
T2 construct: expressed in transfected cells; host or cells: Chinese hamster ovary (CHO) cells, membrane preparation
The assay is described as follows: Radioligand binding studies, [3H]N-methyl scopolamine, m3. The conditions noted are these: CHO cell membranes, [3H]N-methyl scopolamine 0.4 nM; pIC50 converted to pKi by Cheng-Prusoff. The procedure: as §1, §2, §3

T2 sequence (P20309 whole entry): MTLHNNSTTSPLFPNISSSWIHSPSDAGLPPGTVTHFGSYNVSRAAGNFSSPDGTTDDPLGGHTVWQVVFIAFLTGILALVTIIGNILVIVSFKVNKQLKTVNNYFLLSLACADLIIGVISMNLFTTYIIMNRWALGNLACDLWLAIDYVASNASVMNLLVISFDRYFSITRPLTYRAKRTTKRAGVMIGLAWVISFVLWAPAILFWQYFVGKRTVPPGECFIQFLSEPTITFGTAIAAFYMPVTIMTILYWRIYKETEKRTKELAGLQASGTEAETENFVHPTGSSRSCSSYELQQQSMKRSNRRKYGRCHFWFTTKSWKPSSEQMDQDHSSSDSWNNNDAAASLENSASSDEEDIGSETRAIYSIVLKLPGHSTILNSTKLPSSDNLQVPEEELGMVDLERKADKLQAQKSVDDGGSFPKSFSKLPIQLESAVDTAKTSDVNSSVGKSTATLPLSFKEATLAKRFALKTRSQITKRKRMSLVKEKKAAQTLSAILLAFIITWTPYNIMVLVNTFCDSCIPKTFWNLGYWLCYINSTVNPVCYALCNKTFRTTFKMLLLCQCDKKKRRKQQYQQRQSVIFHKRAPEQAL

Regarding `CCCN(C1CCN(C(=O)N2CCOCC2)CC1)C1CCc2ccc(OC)cc2C1` (centres unmarked) [Cpd 1, {4-[(7-methoxy-1,2,3,4-tetrahydro-naphthalen-2-yl)-propyl-amino]-piperidin-1-yl}-morpholin-4-yl-methanone], the Ki in assay [1] is 2.69 nM; in assay [2], 1.48 nM.

For the molecule `CCCN(C1CCN(C(=O)c2ccccc2C)CC1)C1CCc2ccc(OC)cc2C1` (centres unmarked) [Cpd 3, {4-[(7-methoxy-1,2,3,4-tetrahydro-naphthalen-2-yl)-propyl-amino]-piperidin-1-yl}o-tolyl-methanone], the Ki is 41.7 nM in assay [1] and 49 nM in assay [2].

For `CCCN(C1CCN(C(=O)c2ccco2)CC1)C1CCc2ccc(OC)cc2C1` (centres unmarked) [Cpd 4, furan-2-yl-{4-[(7-methoxy-1,2,3,4-tetrahydro-naphthalen-2-yl)-propyl-amino]-piperidin-1-yl}-methanone], the Ki in assay [1] was 26.3 nM; in assay [2] it was 51.3 nM.

Regarding `CCCN(C1CCN(C(=O)N(CC)CC)CC1)C1CCc2ccc(OC)cc2C1` (centres unmarked) [Cpd 5, 4-[(7-methoxy-1,2,3,4-tetrahydro-naphthalen-2-yl)-propyl-amino]-piperidine-1-carboxylic acid diethylamide], the figures for the Ki in assay [1] and in assay [2] were 3.16 nM and 5.89 nM, respectively.

Regarding `CCCN(C1CCN(C(C)=O)CC1)C1CCc2ccc(OC)cc2C1` (centres unmarked) [Cpd 15, 1-{4-[(7-methoxy-1,2,3,4-tetrahydro-naphthalen-2-yl)-propyl-amino]-piperidin-1-yl}ethanone], the results for the Ki in assay [1] and in assay [2] were 4.27 nM and 6.76 nM, respectively.

Consider `CCCN(C1CCN(C(=O)N2CCNCC2)CC1)C1CCc2ccc(OC)cc2C1` (centres unmarked) [Cpd 16, {4-[(7-methoxy-1,2,3,4-tetrahydro-naphthalen-2-yl)-propyl-amino]-piperidin-1-yl}-piperazin-1-yl-methanone], for which the Ki in assay [1] was 0.977 nM; in assay [2], 1.58 nM.

Regarding `CCCN(C1CCN(C(=O)N2CCN(C)CC2)CC1)C1CCc2ccc(OC)cc2C1` (centres unmarked) [Cpd 23, {4-[(7-methoxy-1,2,3,4-tetrahydro-naphthalen-2-yl)-propyl-amino]-piperidin-1-yl}-(4-methyl-piperazin-1-yl)-methanone], the Ki in assay [1] is 0.575 nM; in assay [2] it was 2.75 nM.

Turning to `CCCN(C1CCN(C(=O)C2CCNCC2)CC1)C1CCc2cc(OC)c(OC)cc2C1` (centres unmarked) [Cpd 28, {4-[(6,7-dimethoxy-1,2,3,4-tetrahydro-naphthalen-2-yl)-propyl-amino]-piperidin-1-yl}-piperidin-4-yl-methanone], the values for the Ki in assay [1] and in assay [2] were 5.01 nM and 11.5 nM, respectively.

Consider `CCCN(C1CCN(C(=O)C2CCNCC2)CC1)C1CCc2ccc(Br)cc2C1` (centres unmarked) [Cpd 35, {4-[(7-bromo-1,2,3,4-tetrahydro-naphthalen-2-yl)-propyl-amino]-piperidin-1-yl}-piperidin-4-yl-methanone], for which the Ki in assay [1] was 1.82 nM; in assay [2], 0.891 nM.

Take `CCCN(C1CCN(C(=O)C2CCNCC2)CC1)[C@@H]1CCc2ccc(OC)cc2C1` [Cpd 39, {4-[((R)-7-methoxy-1,2,3,4-tetrahydro-naphthalen-2-yl)-propyl-amino]-piperidin-1-yl}-piperidin-4-yl-methanone]: the Ki in assay [1] is 2.19 nM; in assay [2], 0.955 nM.

The record behind these values is patent publication US6806278B2, “Amino-tetralin derivatives as muscarinic receptor antagonists” (Syntex (U.S.A.) LLC, priority 2001, dated 2004).
